In US5512564A, “Tricyclic thiazole and oxazole derivatives and pharmaceutical agents containing them” (priority 1991, dated 1996):

target: T1, purified RT from HIV-1 (Human immunodeficiency virus type 1 group M subtype B, UniProt P04585); assay: Inhibition of Reverse Transcriptase (3H-thymidine-5'-triphosphate incorporation, 18mer oligonucleotide primer); assay type: biochemical; conditions: concentration causing 50% inhibition of the RT activity; HIV-1 RT expressed in E. coli
T1 construct: purified RT from HIV-1; made in house; host or cells: E. coli
Protocol: The screening test system comprises the purified RT from HIV-1 which was expressed by genetic engineering methods in E. coli as well as the components of the initiation complex and site complementary 18mer oligonucleotide as the primer. The ^3 H!-thymidine-5'-triphosphate incorporation was measured by counting in a β counter. The IC50 value is given in the following table for the investigated compounds. This value corresponds to that concentration of the test substance which causes a 50% inhibition of the RT activity.

SMILES | IC50
O=C1c2cccnc2C2(c3ccccc3)SCCN12 (stereo not drawn) [Example 2, 3a-Phenyl-2,3a-Dihydro-1H-3-Thia-4,8a-Diaza-Cyclopenta a!Inden-8-One] | 3.3 µM
Cc1cc(C)cc(C23SCCN2C(=O)c2nccnc23)c1 (stereo not drawn) [Example 5, 3a-(3,5-Dimethyl-Phenyl)-2,3a-Dihydro-1H-3-Thia-4,7,8a-Triaza-Cyclopenta a! Inden-8-One] | 40 µM
O=C1c2ccncc2C2(c3ccccc3)SCCN12 (stereo not drawn) [Example 7, 3a-Phenyl-2,3a-Dihydro-1H-3-Thia-5,8a-Diaza-Cyclopenta a!Inden-8-One] | 17 µM
Cc1ccnc(C23SCCN2C(=O)c2cccnc23)c1 (stereo not drawn) [Example 8, 3a-(4-Methyl-Pyridin-2-Yl)-2,3a-Dihydro-1H-3-Thia-4,8a-Diaza-Cyclopenta a!I nden-8-One] | 4.6 µM
O=C1c2cccnc2C2(c3ccccn3)SCCN12 (stereo not drawn) [Example 9, 3a-Pyridin-2-Yl-2,3a-Dihydro-1H-3-Thia-4,8a-Diaza-Cyclopenta a!Inden-8-One] | 23 µM
Cc1cccc(C23SCCN2C(=O)c2cccnc23)n1 (stereo not drawn) [Example 10, 3a-(6-Methyl-Pyridin-2-Yl)-2,3a-Dihydro-1H-3-Thia-4,8a-Diaza-Cyclopenta a!I nden-8-One] | 6.6 µM
Cc1cc(C)nc(C23SCCN2C(=O)c2cccnc23)c1 (stereo not drawn) [Example 11, 3a-(4,6-Dimethyl-Pyridin-2-Yl)2,3a-Dihydro-1H-3-Thia-4,8a-Diaza-Cyclopenta a!Inden-8-One] | 3.9 µM
Cc1cccc(C23SCCN2C(=O)c2cccnc23)c1 (stereo not drawn) [Example 13, 3a-m-Tolyl-2,3a-Dihydro-1H-3-Thia-4,8a-Diaza-Cyclopenta a!Inden-8-One] | 4 µM

test system: not given; assay: not given; conditions: treatment of AIDS; Hirsch, M. S. (1988); cited from earlier work

SMILES | therapeutic range (in words)
Cc1cn([C@H]2C[C@H](N=[N+]=[N-])[C@@H](CO)O2)c(=O)[nH]c1=O [AZT, 3'-azido-3'-deoxythymidine] | very narrow therapeutic range
